Results reported in patent US11590075B2, “Methods and products for reducing adhesions” (priority 2017, dated 2023).

How the values were obtained:
[1] = system: IL-6 production in human nasal epithelial cells; assay: IL-6 ELISA, HNECs with Poly (I:C); assay type: cell-based; conditions: 24 hours, in the presence of Poly (I:C) LMW
Protocol: (§1) Supernatants were collected from HNECs and fibroblasts after 24 hours of exposure with different concentrations of deferiprone in the presence/absence of the pro-inflammatory agent Poly (I:C) (10 μg/ml) or IL-1β (10 ng/ml Sigma, Saint Louis, USA) respectively. Interleukin-6 (IL-6) protein levels were estimated with an ELISA kit using rat anti-human IL-6 antibodies (BD Biosciences, New Jersey, USA), according to the manufacturer's instructions. All measurements were performed in duplicate using a FLUOstar OPTIMA plate reader (BMG Labtech, Ortenberg, Germany). The tissue sample concentration was calculated from a standard curve and corrected for protein concentration.

primary fibroblasts [2] = assay: Fibroblast wound healing protocol (gap closure, migration); assay type: cell-based
Protocol: 1. Fibroblast Wound Healing Protocol Fibroblasts were stained with CellTrace Proliferation Kit (Thermo-Fisher Scientific, Life Technologies, CA) and prepared in a suspension of 3×10^5 cells/mL of DMEM (Invitrogen, Sydney Australia) containing Penicillin at 500 U/mL, Streptomycin and Amphotericin B (Sigma-Aldrich, MO) at 0.5 mg/mL, 10% Fetal Bovine Serum. 70 uL of this suspension were seeded into each chamber inserts of the Ibidi culture-insert 24 (Ibidi GmbH, Munich, Germany) and cultured for 12 hours at 37° C., 5% CO2. The inserts were then removed with sterile forceps and cells washed twice in phosphate buffered saline. The following treatments were used: • (i) No treatment control (NTC) DMEM (Invitrogen, Sydney Australia) containing Penicillin at 500 U/mL, Streptomycin and Amphotericin B (Sigma-Aldrich, MO) at 0.5 mg/mL 10% Fetal Bovine Serum. • (ii) 5 mM of Deferiprone dissolved in control media. • (iii) 10 mM Deferiprone dissolved in control media. • (iv) 20 mM Deferiprone dissolved in control media. The effects on cells were recorded in real time at 37° C., 5% CO2 and imaged at intervals of 0, 8, 24 and 48 hours using Zeiss LSM700 Confocal (Carl Zeiss, Oberkochen, Germany) until gap closure. Image properties: DAPI blue signal; 405 nm laser; line step 2; line average 4; bit 12; zoom 0.5; 512×512 pixels; time series.

[3] = system: primary human nasal epithelial cells (HNECs); assay: Cytotoxicity, LDH assay, HNECs; assay type: cell-based; conditions: exposure 1 h, 2 h, 3 h, 4 h, 5 h and 6 h; deferiprone 1, 5, 10, 20 mM (p>0.05); Triton X-100 0.5%
Source text: Primary human nasal epithelial […] harvested from nasal polyps by gentle brushing in a method described by Ramezanpour et al. (2016) “Th17 cytokines disrupt the airway mucosal barrier in chronic rhinosinusitis” Mediators of inflammation; 2016: 9798206. doi: 10.1155/2016/9798206. Extracted cells were suspended in Bronchial Epithelial Growth Media (BEGM, CC-3170, Lonza, Walkersville, Md., USA), supplemented with 2% Ultroser G (Pall Corporation, Port Washington, N.Y., USA). The cell suspension was depleted of macrophages using anti-CD68 (Dako, Glostrup, Denmark) coated culture dishes, and HNECs were maintained with B-ALITM growth medium (Lonza, Walkersville, USA) in collagen coated flasks (Thermo Scientific, Walthman, Mass., USA) in a cell incubator at 37° C. with 5% CO2. Primary human fibroblasts or epithelial cells were grown in DMEM and BEGEM (Lonza, Walkersville, USA) medium respectively. Cells were maintained in a fully humidified incubator with 5% CO2 at 37° C. prior to cytotoxicity studies. […] The optical density (OD) was measured at 490 Mil on a FLUOstar OPTIMA plate reader (BMG Labtech, Ortenberg, Germany), Cell culture studies were performed as three independent experiments.

HNEC-ALI cultures = assay: Wound healing (migration) scratch assay, HNEC-ALI; assay type: cell-based, human; conditions: 1, 5, 10, 20 mM for up to 68 hours; untreated healed by 68 hours
Protocol: HNECs were grown until 80% confluent then harvested for seeding onto collagen coated 6.5 mm permeable Transwell plates (BD Biosciences, San Jose, Calif., USA) at a density of 5×10^4 cells per well. Cells were maintained with B-ALI™ growth medium for 2-3 days in a cell incubator at 37° C. with 5% CO2. On day 3 after seeding, the apical media was removed and the basal media replaced with B-ALI™ differentiation media, exposing the apical cell surface to the atmosphere. Human nasal epithelial cultures at air liquid interface (HNEC-ALI) were maintained for a minimum of 14 days for development of tight junctions and 28 days for cilia generation. In the fibroblast wound closure assay, fibroblasts were seeded in 24 well plates, stained with CellTrace™ Violet (Invitrogen/Life Technologies, USA) and allowed to get 80% confluent in 24 hours. A straight vertical scratch was made down through the fibroblast and HNEC-ALI cell monolayers by using a 200 μl pipette tip. […] The wound closure (cell migration) was recorded using time-lapse LSM700 confocal scanning laser microscopy (Zeiss Microscopy, Germany), with an image recorded every 4 hours in a temperature and CO2 controlled chamber. Data was analysed using Image.

[4] = system: IL-6 production in nasal fibroblast cells; assay: IL-6 ELISA, nasal fibroblasts with IL-1β; assay type: cell-based, human; conditions: in the presence or absence of IL-13 (so in the source), after 24 hours
Protocol: as §1

primary fibroblasts [5] = assay: Alamar Blue proliferation assay; assay type: cell-based
Protocol: Alamar Blue Proliferation Assay Fibroblasts were seeded at a density of 2×10^4 cells/well in 96 well plates (Nuns, Sydney Australia) and cultured at 37° C., 5% CO2 for 24 hours Media was aspirated and cells were washed twice in phosphate buffered saline. The following treatments were used: • (i) No treatment control (NTC)—DMEM (Invitrogen, Sydney Australia) containing Penicillin at 500 U/mL, Streptomycin and Amphotericin B (Sigma-Aldrich, MO) at 0.5 mg/mL, 10% Fetal Bovine Serum. • (ii) 5 mM of Deferiprone dissolved in control media. • (iii) 10 mM Deferiprone dissolved in control media. • (iv) 20 mM Deferiprone dissolved in control media. Readings were taken at 4, 24, 48 and 72 hours. At each time point media was aspirated and fresh control media with 10% Alamar Blue was added and incubated in the dark for 6 hours at 37° C. 5% CO2. The plate was then read at 570 and 595 nm according to manufacturer's instructions. Fibroblasts proliferation was measured using the Alamar Blue reduction assay. The assay is based on use of resazurin, a non-toxic, cell permeable compound which is blue in colour and non-fluorescent. Resazurin is reduced to resorufin a compound that is red in colour and highly fluorescent. Viable cells continuously convert resazurin to resorufin, increasing the overall fluorescence and colour of the media surrounding cells.

[6] = system: primary human nasal fibroblasts; assay: Wound healing (migration) scratch assay, fibroblasts; assay type: cell-based; conditions: for wound healing of primary fibroblasts: after 44 hours
Protocol: In the fibroblast wound closure assay, fibroblasts were seeded in 24 well plates, stained with CellTrace™ Violet (Invitrogen/Life Technologies, USA) and allowed to get 80% confluent in 24 hours. A straight vertical scratch was made down through the fibroblast and HNEC-ALI cell monolayers by using a 200 μl pipette tip. The media and cell debris was aspirated carefully and culture media with different concentrations of deferiprone (1 mM, 5 mM, 10 mM, 20 mM) or media only (negative control) added to each well for 72 hours. At time zero, cells were treated with 1 μg/ml mitomycin (Accord Healthcare Inc, NDC 16729-108-11, USA) to inhibit cell proliferation. The wound closure (cell migration) was recorded using time-lapse LSM700 confocal scanning laser microscopy (Zeiss Microscopy, Germany), with an image recorded every 4 hours in a temperature and CO2 controlled chamber. Data was analysed using Image.

[7] = system: type I collagen release in primary human nasal fibroblasts; assay: Collagen assay (procollagen type I C-peptide ELISA); assay type: cell-based; conditions: different concentrations (1, 5, 10, 20 mM)
Protocol: Primary human nasal fibroblasts were seeded in 24-well tissue-culture plates at a density of 5×10^5 grown in DMEM until confluent. […] Following treatment, the supernatant was collected and the protein level of type I collagen was measured with a procollagen type I C-peptide ELISA kit (Takara Bio Inc, Otsu, Japan). Experimental procedures followed the manufacturer's instruction. Briefly, 20 μl of culture medium and 100 μl of the antibody-POD conjugate solution were sequentially added into microtiter plates and reacted for 3 hours at 37° C. After 4× washing with washing buffer solution (1×PBST), 100 μl of the substrate solution was added and incubated for 15 minutes at RT. Finally, the stop solution (100 μl) was added and corresponding absorbance was recorded at 450 nm using a FLUOstar OPTIMA plate reader (BMG Labtech, Ortenberg, Germany).

[8] = system: primary human nasal fibroblasts; assay: Cytotoxicity, LDH assay, nasal fibroblasts; assay type: cell-based; conditions: exposure 1 h, 2 h, 3 h, 4 h, 5 h and 6 h; deferiprone 1, 5, 10, 20 mM (p>0.05); Triton X-100 0.5%
Protocol: Sinonasal tissue was biopsied from paranasal sinus mucosa and transferred to a 6-well culture plate with 2 ml Dulbecco's Modified Eagle's medium (DMEM, Invitrogen, UK) supplemented with 1:100 L-glutamine, 10% Fetal bovine serum (FBS, Sigma-Aldrich), 1:100 ascorbic acid 2-phosphate, and 1:100 penicillin streptomycin (Gibco, Life Technologies) and incubated. Every 2-3 days, the tissue was washed gently with 1 ml phosphate-buffered saline (PBS) and medium was replaced with 1.5 ml fresh medium until fibroblasts became confluent after approximately 2 weeks. Once confluent, fibroblasts were washed with 2 ml PBS, trypsinized and collected followed by centrifugation at 400×g for 8 minutes. The supernatant was removed and pellet resuspended in 1 ml PBS along with 50 μl Dynabeads Epithelial Enrich (Invitrogen, USA). The tube was wrapped in parafilm and placed on a rotor mixer for 20 minutes at room temperature (RT). Supernatant containing fibroblasts were transferred to a T25 tissue culture flask and the tube containing the remaining beads discarded Primary human fibroblasts or epithelial cells were grown in DMEM and BEGEM (Lonza, Walkersville, USA) medium respectively. […] The optical density (OD) was measured at 490 Mil on a FLUOstar OPTIMA plate reader (BMG Labtech, Ortenberg, Germany), Cell culture studies were performed as three independent experiments.

Q: With `Cc1c(O)c(=O)ccn1C` [deferiprone, 3-hydroxy-1,2-dimethylpyridin-4(1H)-one] as the molecule, how does the “reduction of IL-6 protein concentrations in HNECs” value ([1]; 10 mM, p=0.001) read?
A: 80%

Q: And the “reduction of IL-6 protein concentrations in HNECs” value ([1]; 20 mM, p=0.0001)?
A: 96%

Q: And the “closure of void in fibroblasts” value (primary fibroblasts [2]; 20 mM deferiprone, up to 48 hours, control cells close the void after 48 hours)?
A: minimal closure

Q: What about the fibroblast migration (primary fibroblasts [2]; within 48 hours, 5, 10, 20 mM) of the same molecule?
A: inhibited fibroblast migration

Q: What about the “LDH release (cytotoxicity) in HNECs” value [3] of the same molecule?
A: no significant increase in LDH release

Q: And the “wound healing in HNEC-ALI cultures” value (HNEC-ALI cultures)?
A: did not show any significant delay in wound healing

Q: And the “secretion of IL-6 in nasal fibroblasts” value [4]?
A: did not alter the secretion of IL-6

Q: And the “inhibition of fibroblast proliferation (Alamar Blue)” value (primary fibroblasts [5]; 5, 10, 20 mM deferiprone, readings at 4, 24, 48, 72 hours, 2-way ANOVA)?
A: significant dose dependent effect

Q: What about the “time course of inhibition of proliferation” value (primary fibroblasts [5]; occurred over a period of at least 24 to 72 hours) of the same molecule?
A: time dependent

Q: What about the “wound healing of primary fibroblasts” value ([6]; 5 mM) of the same molecule?
A: significantly delayed healing

Q: What about the “wound healing of primary fibroblasts” value ([6]; 10 mM) of the same molecule?
A: significantly delayed healing

Q: What about the “wound closure of primary fibroblasts” value ([6]; 20 mM, at 28 h and all time points thereafter, untreated closed after 44 hours) of the same molecule?
A: significant delay in wound closure

Q: And the “collagen protein concentrations in supernatants of fibroblast monolayers” value ([7]; 24 hours as printed, absence of ASC, p<0.0001)?
A: significantly reduced collagen protein concentrations

Q: What about the “collagen secretion in the presence of L-Ascorbic acid-2 phosphate (ASC)” value ([7]; with ASC) of the same molecule?
A: significantly inhibited collagen secretion in a dose dependent manner

Q: What about the “LDH release (cytotoxicity) in fibroblasts” value [8] of the same molecule?
A: no significant increase in LDH release
